Source: patent US6914045B2, “Glycopeptide antibiotics” (Wyeth Holdings Corporation, priority 2001, dated 2005)
≈ marks a conversion by molar mass, not a printed value.

What was measured:
Assay in all cases: in vitro antibacterial evaluation, MIC by broth dilution
Format in all cases: cell-based
Staphylococcus sp. = details: broth dilution, 18 hours at 35° C.
Outline: (§1)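 Broth dilution per NCCLS standard M7-A2 in Muller-Hinton II […], with an inoculum of 5×10^5 CFU/mL and antibiotic spanning 64-0.06 μg/mL. The MIC is the lowest concentration that inhibits growth of the organism.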

Escherichia coli = details: 18 hours at 35° C.
Outline: as §1

Streptococcus sp. = details: broth dilution, 18 hours at 35° C.
Outline: as §1

Enterococcus sp. = details: broth dilution, 18 hours at 35° C.
Outline: as §1

MIC Staphylococcus aureus (ATCC 29213) (Staphylococcus sp.): 4 µg/mL (≈ 2.88 µM)
MIC Staphylococcus aureus (GC 1131) (Staphylococcus sp.): 2 µg/mL (≈ 1.44 µM)
MIC Staphylococcus aureus (GC 3051) (Staphylococcus sp.): 2 µg/mL (≈ 1.44 µM)
MIC Staphylococcus aureus (GC 3053) (Staphylococcus sp.): 4 µg/mL (≈ 2.88 µM)
MIC Staphylococcus aureus (GC 4541) (Staphylococcus sp.): 2 µg/mL (≈ 1.44 µM)
MIC Staphylococcus aureus (GC 4542) (Staphylococcus sp.): 2 µg/mL (≈ 1.44 µM)
MIC Staphylococcus aureus (GC 4544) (Staphylococcus sp.): 4 µg/mL (≈ 2.88 µM)
MIC Staphylococcus aureus (GC 4545) (Staphylococcus sp.): 2 µg/mL (≈ 1.44 µM)
MIC Staphylococcus aureus (GC 1131) (Staphylococcus sp.; inoculum 5×10^5 CFU/mL, strain GC 1131): 2 µg/mL (≈ 1.44 µM)
MIC Staphylococcus aureus (ATCC 29213) (Staphylococcus sp.; strain ATCC 29213): 4 µg/mL (≈ 2.88 µM)
MIC Staphylococcus aureus (GC 3051) (Staphylococcus sp.; strain GC 3051): 2 µg/mL (≈ 1.44 µM)
MIC Staphylococcus aureus (GC 3053) (Staphylococcus sp.; strain GC 3053): 4 µg/mL (≈ 2.88 µM)
MIC Staphylococcus aureus (GC 4541) (Staphylococcus sp.; strain GC 4541): 2 µg/mL (≈ 1.44 µM)
MIC Staphylococcus aureus (GC 4542) (Staphylococcus sp.; strain GC 4542): 2 µg/mL (≈ 1.44 µM)
MIC Staphylococcus aureus-SMITH (GC 4543) (Staphylococcus sp.; strain GC 4543): 2 µg/mL (≈ 1.44 µM)
MIC Staphylococcus aureus (GC 4544) (Staphylococcus sp.; strain GC 4544): 4 µg/mL (≈ 2.88 µM)
MIC Staphylococcus aureus (GC 4545) (Staphylococcus sp.; strain GC 4545): 2 µg/mL (≈ 1.44 µM)
MIC Coagulase Negative Staphylococcus (GC 4547) (Staphylococcus sp.; strain GC 4547): 2 µg/mL (≈ 1.44 µM)
MIC Coagulase Negative Staphylococcus (GC 4548) (Staphylococcus sp.; strain GC 4548): 1 µg/mL (≈ 0.72 µM)
MIC Coagulase Negative Staphylococcus (GC 4549) (Staphylococcus sp.; strain GC 4549): 1 µg/mL (≈ 0.72 µM)
MIC Coagulase Negative Staphylococcus (GC 4551) (Staphylococcus sp.; strain GC 4551): 2 µg/mL (≈ 1.44 µM)
MIC Coagulase Negative Staphylococcus (GC 6257) (Staphylococcus sp.; strain GC 6257): 1 µg/mL (≈ 0.72 µM)
MIC Staphylococcus aureus-SMITH (GC 4543) (Staphylococcus sp.; strain SMITH GC 4543): 2 µg/mL (≈ 1.44 µM)
MIC Escherichia coli (ATCC 25922) (Escherichia coli; strain ATCC 25922): >64 µg/mL
MIC Escherichia coli (GC 4559) (Escherichia coli; strain GC 4559): 32 µg/mL (≈ 23 µM)
MIC Escherichia coli (GC 4560) (Escherichia coli; strain GC 4560): 1 µg/mL (≈ 0.72 µM)
MIC Streptococcus agalactiae (GC 4564) (Streptococcus sp.; Streptococcus agalactiae (GC 4564)): 0.5 µg/mL (≈ 0.36 µM)
MIC Streptococcus pneumoniae (ATCC 6301) (Streptococcus sp.; Streptococcus pneumoniae (ATCC 6301)): 0.25 µg/mL (≈ 0.18 µM)
MIC Streptococcus pneumoniae (GC 1894) (Streptococcus sp.; Streptococcus pneumoniae (GC 1894)): 0.12 µg/mL (≈ 0.0864 µM)
MIC Streptococcus pneumoniae (GC 4565) (Streptococcus sp.; Streptococcus pneumoniae (GC 4565)): 0.25 µg/mL (≈ 0.18 µM)
MIC Streptococcus pyogenes (GC 4563) (Streptococcus sp.; Streptococcus pyogenes (GC 4563)): 0.5 µg/mL (≈ 0.36 µM)
MIC Streptococcus pneumoniae (ATCC 6301) (Streptococcus sp.; strain ATCC 6301): 0.25 µg/mL (≈ 0.18 µM)
MIC Streptococcus pneumoniae (GC 1894) (Streptococcus sp.; strain GC 1894): 0.12 µg/mL (≈ 0.0864 µM)
MIC Streptococcus pyogenes (GC 4563) (Streptococcus sp.; strain GC 4563): 0.5 µg/mL (≈ 0.36 µM)
MIC Streptococcus agalactiae (GC 4564) (Streptococcus sp.; strain GC 4564): 0.5 µg/mL (≈ 0.36 µM)
MIC Streptococcus pneumoniae (GC 4565) (Streptococcus sp.; strain GC 4565): 0.25 µg/mL (≈ 0.18 µM)
MIC Enterococcus avium (GC 4558) (Enterococcus sp.; Enterococcus avium (GC 4558)): 16 µg/mL (≈ 11.5 µM)
MIC Enterococcus faecalis (ATCC 29212) (Enterococcus sp.; Enterococcus faecalis (ATCC 29212)): 8 µg/mL (≈ 5.76 µM)
MIC Enterococcus faecalis (GC 2242) (Enterococcus sp.; Enterococcus faecalis (GC 2242)): 8 µg/mL (≈ 5.76 µM)
MIC Enterococcus faecalis (GC 2691) (Enterococcus sp.; Enterococcus faecalis (GC 2691)): 8 µg/mL (≈ 5.76 µM)
MIC Enterococcus faecalis (GC 3059) (Enterococcus sp.; Enterococcus faecalis (GC 3059)): 16 µg/mL (≈ 11.5 µM)
MIC Enterococcus faecalis (GC 4552) (Enterococcus sp.; Enterococcus faecalis (GC 4552)): 8 µg/mL (≈ 5.76 µM)
MIC Enterococcus faecalis (GC 4553) (Enterococcus sp.; Enterococcus faecalis (GC 4553)): 16 µg/mL (≈ 11.5 µM)
MIC Enterococcus faecalis (GC 4554) (Enterococcus sp.; Enterococcus faecalis (GC 4554)): 8 µg/mL (≈ 5.76 µM)
MIC Enterococcus faecalis (GC 6189) (Enterococcus sp.; Enterococcus faecalis (GC 6189)): 8 µg/mL (≈ 5.76 µM)
MIC Enterococcus faecium (GC 2243) (Enterococcus sp.; Enterococcus faecium (GC 2243)): 8 µg/mL (≈ 5.76 µM)
MIC Enterococcus faecium (GC 4556) (Enterococcus sp.; Enterococcus faecium (GC 4556)): 8 µg/mL (≈ 5.76 µM)
MIC Enterococcus faecium (GC 4557) (Enterococcus sp.; Enterococcus faecium (GC 4557)): 4 µg/mL (≈ 2.88 µM)
MIC Enterococcus faecalis (ATCC 29212) (Enterococcus sp.; strain ATCC 29212): 8 µg/mL (≈ 5.76 µM)
MIC Enterococcus faecalis (GC 2242) (Enterococcus sp.; strain GC 2242): 8 µg/mL (≈ 5.76 µM)
MIC Enterococcus faecium (GC 2243) (Enterococcus sp.; strain GC 2243): 8 µg/mL (≈ 5.76 µM)
MIC Enterococcus faecalis (GC 2691) (Enterococcus sp.; strain GC 2691): 8 µg/mL (≈ 5.76 µM)
MIC Enterococcus faecalis (GC 3059) (Enterococcus sp.; strain GC 3059): 16 µg/mL (≈ 11.5 µM)
MIC Enterococcus faecalis (GC 4552) (Enterococcus sp.; strain GC 4552): 8 µg/mL (≈ 5.76 µM)
MIC Enterococcus faecalis (GC 4553) (Enterococcus sp.; strain GC 4553): 16 µg/mL (≈ 11.5 µM)
MIC Enterococcus faecalis (GC 4554) (Enterococcus sp.; strain GC 4554): 8 µg/mL (≈ 5.76 µM)
MIC Enterococcus faecium (GC 4556) (Enterococcus sp.; strain GC 4556): 8 µg/mL (≈ 5.76 µM)
MIC Enterococcus faecium (GC 4557) (Enterococcus sp.; strain GC 4557): 4 µg/mL (≈ 2.88 µM)
MIC Enterococcus avium (GC 4558) (Enterococcus sp.; strain GC 4558): 16 µg/mL (≈ 11.5 µM)
MIC Enterococcus faecalis (GC 6189) (Enterococcus sp.; strain GC 6189): 8 µg/mL (≈ 5.76 µM)
SMILES: CC(c1ccccc1)C1NC(=O)CNC(=O)C(CO)NC(=O)C(C(O)C2CNC(=N)N2C2OC(CO)C(O)C(O)C2O)NC(=O)C(C(O)C2CNC(=N)N2)NC(=O)C(Cc2ccc(OC3OC(CO)C(OC4OC5COC(c6cccs6)OC5C(O)C4O)C(O)C3O)cc2)NC1=O (stereo not shown) [Example 132]
MIC Staphylococcus haemolyticus (GC 4546) (Staphylococcus sp.; strain GC 4546): 1 µg/mL (≈ 0.72 µM)
